Here are results for three compounds from patent publication US12275731B2, “Azaindole inhibitors of wild-type and mutant forms of LRRK2” (DANA-FARBER CANCER INSTITUTE, INC., priority 2018, dated 2025).

What all share (assay): KinomeScan profiling
Holding throughout (type): binding

The target in test [1] is FGFR2 (Homo sapiens, UniProt P21802). The conditions noted are these: FGFR2, 1 μM; read-out: % control. In a few lines:
(§1)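 Single-point competition binding screen: 1 μM, DMSO, 468 kinases. Results reported as % control from RLU, normalised to DMSO and positive-control wells. Activity threshold: <35% control.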

For test [2], the target named is T1, PIK3CA(E542K) (Homo sapiens, UniProt P42336, E542K).
T1 construct: purchased KinomeScan® (panel service)
T1 sequence (P42336 whole entry E542K): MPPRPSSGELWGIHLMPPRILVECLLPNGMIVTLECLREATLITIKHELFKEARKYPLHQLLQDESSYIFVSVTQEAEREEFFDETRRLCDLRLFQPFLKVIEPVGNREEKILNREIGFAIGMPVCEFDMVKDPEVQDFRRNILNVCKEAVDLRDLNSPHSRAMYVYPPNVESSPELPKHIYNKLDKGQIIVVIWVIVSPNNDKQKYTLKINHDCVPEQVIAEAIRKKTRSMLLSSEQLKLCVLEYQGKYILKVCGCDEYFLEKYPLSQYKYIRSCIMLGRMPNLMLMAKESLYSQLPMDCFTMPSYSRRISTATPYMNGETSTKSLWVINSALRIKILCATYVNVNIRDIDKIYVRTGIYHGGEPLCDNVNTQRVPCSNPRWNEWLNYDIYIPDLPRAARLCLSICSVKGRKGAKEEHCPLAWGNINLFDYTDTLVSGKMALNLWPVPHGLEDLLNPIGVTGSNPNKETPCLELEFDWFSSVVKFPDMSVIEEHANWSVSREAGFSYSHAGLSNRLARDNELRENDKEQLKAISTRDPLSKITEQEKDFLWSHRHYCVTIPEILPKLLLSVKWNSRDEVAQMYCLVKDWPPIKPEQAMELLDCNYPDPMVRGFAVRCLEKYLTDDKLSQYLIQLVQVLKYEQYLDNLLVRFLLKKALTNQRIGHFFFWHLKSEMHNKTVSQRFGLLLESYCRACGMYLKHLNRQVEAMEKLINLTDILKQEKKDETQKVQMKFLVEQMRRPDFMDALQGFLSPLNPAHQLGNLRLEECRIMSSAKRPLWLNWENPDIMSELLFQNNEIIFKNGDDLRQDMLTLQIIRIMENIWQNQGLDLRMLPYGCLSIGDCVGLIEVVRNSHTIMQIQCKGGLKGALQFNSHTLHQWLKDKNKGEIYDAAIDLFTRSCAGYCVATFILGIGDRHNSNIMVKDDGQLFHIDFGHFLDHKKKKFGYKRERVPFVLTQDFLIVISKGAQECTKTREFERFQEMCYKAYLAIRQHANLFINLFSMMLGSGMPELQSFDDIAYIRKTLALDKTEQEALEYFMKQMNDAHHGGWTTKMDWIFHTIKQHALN
To be noted: read-out: % control. In a few lines:
(§2)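 Test agents were profiled at a single concentration of 1 μM (DMSO vehicle) on a near-complete set of 468 kinases. Signal is reported relative to vehicle (100%) and a fully displacing control (0%).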

The target of test [3] is T2, GRK7 (Homo sapiens, UniProt Q8WTQ7).
T2 sequence (Q8WTQ7 1-553): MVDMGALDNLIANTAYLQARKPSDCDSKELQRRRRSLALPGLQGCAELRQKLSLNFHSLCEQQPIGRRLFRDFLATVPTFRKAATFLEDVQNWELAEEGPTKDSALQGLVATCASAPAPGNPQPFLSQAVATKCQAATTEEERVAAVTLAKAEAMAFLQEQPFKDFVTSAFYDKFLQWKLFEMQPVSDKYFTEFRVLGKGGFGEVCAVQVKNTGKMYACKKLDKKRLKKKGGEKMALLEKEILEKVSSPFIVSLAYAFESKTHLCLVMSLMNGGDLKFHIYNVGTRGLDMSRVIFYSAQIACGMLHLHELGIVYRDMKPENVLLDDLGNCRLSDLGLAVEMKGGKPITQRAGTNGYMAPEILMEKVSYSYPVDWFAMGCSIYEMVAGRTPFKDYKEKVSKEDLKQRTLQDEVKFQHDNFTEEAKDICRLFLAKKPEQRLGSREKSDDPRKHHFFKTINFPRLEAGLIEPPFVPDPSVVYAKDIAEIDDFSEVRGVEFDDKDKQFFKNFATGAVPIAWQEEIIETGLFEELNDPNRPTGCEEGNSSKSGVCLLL
To be noted: GRK7, 1 μM; read-out: % control. In a few lines: as §1

Test [4] concerns the target T3, PKMYT1 (Homo sapiens, UniProt Q99640).
T3 sequence (Q99640 1-499): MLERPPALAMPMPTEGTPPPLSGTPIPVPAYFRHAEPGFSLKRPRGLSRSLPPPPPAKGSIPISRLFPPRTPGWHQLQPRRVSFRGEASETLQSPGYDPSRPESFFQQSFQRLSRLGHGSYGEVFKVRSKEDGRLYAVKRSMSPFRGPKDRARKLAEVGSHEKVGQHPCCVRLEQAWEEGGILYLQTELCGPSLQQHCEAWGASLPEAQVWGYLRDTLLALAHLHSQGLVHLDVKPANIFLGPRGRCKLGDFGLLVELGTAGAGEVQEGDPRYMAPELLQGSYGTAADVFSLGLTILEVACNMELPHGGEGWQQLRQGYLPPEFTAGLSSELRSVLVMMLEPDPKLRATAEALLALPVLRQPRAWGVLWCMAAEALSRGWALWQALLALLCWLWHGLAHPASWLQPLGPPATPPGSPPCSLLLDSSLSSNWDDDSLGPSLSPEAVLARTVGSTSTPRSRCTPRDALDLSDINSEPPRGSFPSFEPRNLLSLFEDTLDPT
The conditions noted are these: PKMYT1, 1 μM; read-out: % control. In outline: as §1

For test [5], the target named is T4, EPHA8 (Homo sapiens, UniProt P29322).
T4 sequence (P29322 28-1005): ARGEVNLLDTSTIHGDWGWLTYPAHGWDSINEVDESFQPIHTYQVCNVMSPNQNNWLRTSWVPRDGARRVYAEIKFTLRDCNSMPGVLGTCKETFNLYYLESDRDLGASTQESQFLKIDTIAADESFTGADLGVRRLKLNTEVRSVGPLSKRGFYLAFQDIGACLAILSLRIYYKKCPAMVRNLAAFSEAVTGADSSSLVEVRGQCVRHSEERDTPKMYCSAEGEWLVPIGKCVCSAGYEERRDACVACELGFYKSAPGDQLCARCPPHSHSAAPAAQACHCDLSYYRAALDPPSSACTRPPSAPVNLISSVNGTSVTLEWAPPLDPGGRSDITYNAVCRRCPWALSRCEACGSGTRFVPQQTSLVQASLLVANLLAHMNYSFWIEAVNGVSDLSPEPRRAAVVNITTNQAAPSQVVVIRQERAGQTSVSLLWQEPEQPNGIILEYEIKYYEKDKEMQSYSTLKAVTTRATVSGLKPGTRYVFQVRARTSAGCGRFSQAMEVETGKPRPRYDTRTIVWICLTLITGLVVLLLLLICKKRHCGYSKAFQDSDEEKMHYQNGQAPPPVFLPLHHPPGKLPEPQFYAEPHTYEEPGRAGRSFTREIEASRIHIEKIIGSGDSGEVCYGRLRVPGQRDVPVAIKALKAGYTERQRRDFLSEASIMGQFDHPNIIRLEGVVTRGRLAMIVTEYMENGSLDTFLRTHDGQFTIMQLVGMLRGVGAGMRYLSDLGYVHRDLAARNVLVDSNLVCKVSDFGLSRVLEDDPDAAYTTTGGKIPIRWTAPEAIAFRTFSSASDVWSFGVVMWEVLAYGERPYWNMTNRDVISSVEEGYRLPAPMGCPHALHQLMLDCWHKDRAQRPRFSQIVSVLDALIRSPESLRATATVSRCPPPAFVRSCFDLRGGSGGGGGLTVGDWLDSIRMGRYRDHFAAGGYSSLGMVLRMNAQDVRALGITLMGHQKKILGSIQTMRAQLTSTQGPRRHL
The conditions noted are these: EPHA8, 1 μM; read-out: % control. In outline: as §2

Test [6] concerns the target T5, PKAC-alpha (Homo sapiens, UniProt P17612).
T5 construct: purchased KinomeScan® (panel service)
To be noted: read-out: % control. In a few lines: as §1

The target in test [7] is EPHA4 (Homo sapiens, UniProt P54764). To be noted: EPHA4, 1 μM; read-out: % control. In a few lines: as §1
Sequence of EPHA4 (P54764 20-986): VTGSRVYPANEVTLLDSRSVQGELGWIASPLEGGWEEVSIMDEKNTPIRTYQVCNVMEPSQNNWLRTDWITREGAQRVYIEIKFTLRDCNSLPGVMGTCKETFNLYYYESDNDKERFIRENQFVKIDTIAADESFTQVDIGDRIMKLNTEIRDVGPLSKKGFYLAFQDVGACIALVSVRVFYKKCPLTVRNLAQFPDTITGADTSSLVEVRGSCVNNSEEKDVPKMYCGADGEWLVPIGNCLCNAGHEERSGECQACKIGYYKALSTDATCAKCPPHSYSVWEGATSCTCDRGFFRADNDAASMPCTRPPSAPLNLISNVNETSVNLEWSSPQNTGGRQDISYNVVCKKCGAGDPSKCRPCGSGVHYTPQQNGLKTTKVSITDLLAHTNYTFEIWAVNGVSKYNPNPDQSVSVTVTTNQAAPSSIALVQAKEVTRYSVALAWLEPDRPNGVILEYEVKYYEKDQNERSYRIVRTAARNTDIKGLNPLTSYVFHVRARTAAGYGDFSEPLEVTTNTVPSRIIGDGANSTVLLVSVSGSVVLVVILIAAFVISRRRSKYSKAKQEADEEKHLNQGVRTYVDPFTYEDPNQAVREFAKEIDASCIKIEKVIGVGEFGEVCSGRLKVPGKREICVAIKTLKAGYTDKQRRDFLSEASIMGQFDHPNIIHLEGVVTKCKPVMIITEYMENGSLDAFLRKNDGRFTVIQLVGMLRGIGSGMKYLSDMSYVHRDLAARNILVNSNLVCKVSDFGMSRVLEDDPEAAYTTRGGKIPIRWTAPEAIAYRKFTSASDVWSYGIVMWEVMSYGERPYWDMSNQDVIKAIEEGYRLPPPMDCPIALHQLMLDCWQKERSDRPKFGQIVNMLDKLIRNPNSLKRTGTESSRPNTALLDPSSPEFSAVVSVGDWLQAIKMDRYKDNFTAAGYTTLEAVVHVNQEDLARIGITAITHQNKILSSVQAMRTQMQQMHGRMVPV
The target in test [8] is T6, RSK2(Kin.Dom.2-C-terminal) (Homo sapiens, UniProt P51812).
T6 construct: RSK2(Kin.Dom.2-C-terminal)
T6 sequence (P51812 422-679 limits assumed): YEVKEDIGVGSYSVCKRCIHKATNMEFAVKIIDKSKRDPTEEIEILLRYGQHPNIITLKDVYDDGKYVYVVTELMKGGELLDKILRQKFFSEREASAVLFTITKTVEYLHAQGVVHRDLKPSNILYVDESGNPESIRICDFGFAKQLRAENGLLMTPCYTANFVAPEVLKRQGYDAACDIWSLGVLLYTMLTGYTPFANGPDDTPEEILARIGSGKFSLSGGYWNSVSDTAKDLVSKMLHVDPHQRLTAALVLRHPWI
To be noted: read-out: % control. In a few lines: as §1

Sequence of FGFR2 (P21802 22-821): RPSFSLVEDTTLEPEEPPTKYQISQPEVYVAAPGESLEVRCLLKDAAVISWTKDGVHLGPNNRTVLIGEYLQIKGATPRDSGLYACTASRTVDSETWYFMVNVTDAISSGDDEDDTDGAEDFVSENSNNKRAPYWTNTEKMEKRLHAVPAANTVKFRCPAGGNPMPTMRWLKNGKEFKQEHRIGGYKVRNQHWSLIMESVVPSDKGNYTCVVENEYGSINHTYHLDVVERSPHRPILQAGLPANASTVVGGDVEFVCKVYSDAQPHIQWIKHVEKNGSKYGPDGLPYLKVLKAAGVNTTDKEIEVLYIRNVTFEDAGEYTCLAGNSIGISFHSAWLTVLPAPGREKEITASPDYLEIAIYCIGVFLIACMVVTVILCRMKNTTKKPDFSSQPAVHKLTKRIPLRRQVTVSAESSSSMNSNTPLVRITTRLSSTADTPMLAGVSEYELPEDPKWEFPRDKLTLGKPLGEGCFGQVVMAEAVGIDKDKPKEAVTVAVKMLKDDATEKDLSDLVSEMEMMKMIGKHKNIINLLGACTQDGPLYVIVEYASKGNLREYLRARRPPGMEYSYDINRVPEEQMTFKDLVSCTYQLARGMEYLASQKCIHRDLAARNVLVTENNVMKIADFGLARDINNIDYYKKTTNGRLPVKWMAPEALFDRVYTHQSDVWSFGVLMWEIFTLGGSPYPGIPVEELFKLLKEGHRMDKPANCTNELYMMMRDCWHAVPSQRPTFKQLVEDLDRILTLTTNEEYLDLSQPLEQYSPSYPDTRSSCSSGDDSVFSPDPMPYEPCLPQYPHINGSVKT

Take `CNc1c(-c2ccc(C(=O)N3CCC(N4CCOCC4)CC3)cc2)cnc2[nH]cc(Cl)c12` [Compound 96, (4-(3-chloro-4-(methylamino)-1H-pyrrolo[2,3-b]pyridin-5-yl)phenyl)(4-morpholinopiperidin-1-yl)methanone]: the remaining binding at 1 µM in test [1] was determined as 94%; in test [2], 100%; in test [3] it was 100%; in test [4] it was 100%; in test [5], 96%; in test [6] it was 100%. The remaining binding at 1 µM in test [7] stood at 100%; in test [8], 97%.

`O=C(c1ccc(-c2cnc3[nH]cc(Cl)c3c2NC2CCCC2)cc1)N1CCC(N2CCOCC2)CC1` [Compound 101, (4-(3-chloro-4-(cyclopentylamino)-1H-pyrrolo[2,3-b]pyridin-5-yl)phenyl)(4-morpholinopiperidin-1-yl)methanone]: the remaining binding at 1 µM in test [1] came out at 54%; in test [2], 98%; in test [3], 94%; in test [4], 97%; in test [5], 93%; in test [6] it was 100%. Further, the figures for the remaining binding at 1 µM in test [7] and in test [8] were 88% and 83%, respectively.

As for `CNc1c(-c2cnn([C@H]3CCN(C(C)=O)C[C@@H]3F)c2)cnc2[nH]cc(Cl)c12` [Compound 77, 1-((3S,4S)-4-(4-(3-chloro-4-(methylamino)-1H-pyrrolo[2,3-b]pyridin-5-yl)-1H-pyrazol-1-yl)-3-fluoropiperidin-1-yl)ethan-1-one], the remaining binding at 1 µM in test [1] came to 72%; in test [2], 100%; in test [3], 100%; in test [4] it was 98%; in test [5] it was 94%; in test [6] it was 100%. In addition, the remaining binding at 1 µM is 96% in test [7] and 98% in test [8].
